The source of these data is patent US8685957B1 (Cubist Pharmaceuticals, Inc., priority 2012, dated 2014).

The nature of the data set: Hygroscopicity experiments by DVS (water vapor sorption). Format: physicochemical. Conditions: relative to amorphous tazobactam arginine and amorphous tazobactam sodium. On the procedure: Analysis by DVS was performed on a VTI SGA-100 water vapor sorption analyser using approximately 18-23 mg of each sample. Each sample was pre-dried at 60° C. for a maximum of 1 hour and then analyzed at 25° C. in 10% relative humidity (RH) steps from 5-95% (adsorption) and then 90-10% RH (desorption). The sample was equilibrated to each humidity level for a maximum of 3 hours or until constant weight was attained. Equilibrium criteria were set at less than 0.0050% weight change within 5 minutes.

For the compound `C[C@]1(Cn2ccnn2)[C@H](C(=O)O)N2C(=O)CC2S1(=O)=O` (stereo partly shown) [Tazobactam arginine polymorph Ia, tazobactam arginine], the hygroscopicity result is on record as “low hygroscopicity”.
